Calls of active or inactive are those of the source. No cut-off for these calls is given here.
How the values were obtained:
HCT-116 [1] = test: Induction of apoptosis in human HCT-116 cells at 1.2 uM in presence of NAC by Annexin V-FITC/PI staining based flow cytometry; assay type: functional, cell-based
HCT-116 [2] = test: Induction of intracellular ROS generation in human HCT-116 cells incubated for 48 hrs by DHE staining based analysis; assay type: functional, cell-based; conditions: dose 0.3-1.2 µM
HCT-116 [3] = test: Antiproliferative activity against human HCT-116 cells assessed as inhibition of cell viability incubated for 48 hrs by CCK8 assay; assay type: functional, cell-based; conditions: HCT-116, 48 h
MCF7 = test: Antiproliferative activity against human MCF7 cells assessed as inhibition of cell viability incubated for 48 hrs by CCK8 assay; assay type: functional, cell-based; conditions: MCF7, 48 h
PANC-1 = test: Antiproliferative activity against human PANC-1 cells assessed as inhibition of cell viability incubated for 48 hrs by CCK8 assay; assay type: functional, cell-based; conditions: PANC-1, 48 h
HCT-116 [4] = test: Anti-invasion activity in human HCT-116 cells incubated for 24 hrs by transwell assay; assay type: functional, cell-based; conditions: dose 0.3-1.2 µM
HCT-116 [5] = test: Induction of cell cycle arrest in human HCT-116 cells assessed as accumulation at G1 phase at 1.2 uM incubated for 48 hrs by PI staining based flow cytometry (reference value: 59.37 %); assay type: functional
HCT-116 [6] = test: Induction of cell cycle arrest in human HCT-116 cells assessed as accumulation at S phase at 1.2 uM incubated for 48 hrs by PI staining based flow cytometry (reference value: 34.55 %); assay type: functional
HCT-116 [7] = test: Induction of apoptosis in human HCT-116 cells assessed as viable cells at 0.6 uM incubated for 48 hrs by Annexin V-FITC/PI staining based flow cytometry (reference value: 96.2 %); assay type: functional; conditions: read-out: Activity
HCT-116 [8] = test: Induction of apoptosis in human HCT-116 cells assessed as late apoptotic cells at 0.6 uM incubated for 48 hrs by Annexin V-FITC/PI staining based flow cytometry (reference value: 1.55 %); assay type: functional
HCT-116 [9] = test: Induction of apoptosis in human HCT-116 cells assessed as viable cells at 1.2 uM incubated for 48 hrs by Annexin V-FITC/PI staining based flow cytometry (reference value: 96.2 %); assay type: functional; conditions: read-out: Activity
HCT-116 [10] = test: Induction of apoptosis in human HCT-116 cells assessed as necrotic cells at 1.2 uM incubated for 48 hrs by Annexin V-FITC/PI staining based flow cytometry (reference value: 1.15 %); assay type: functional
HCT-116 [11] = test: Induction of cell cycle arrest in human HCT-116 cells assessed as decrease in CDK4 level incubated for 48 hrs by Western blot analysis; assay type: functional, cell-based; conditions: dose 0.3-1.2 µM
HCT-116 [12] = test: Induction of DNA damage in human HCT-116 cells assessed as increase in p53 level at 0.3 to 1.2 uM incubated for 48 hrs by Western blot analysis; assay type: functional, cell-based; conditions: dose 0.3-1.2 µM
HCT-116 [13] = test: Induction of apoptosis in human HCT-116 cells assessed as increase in p53 level at 1.2 uM in presence of NAC by Western blot analysis; assay type: functional, cell-based
HCT-116 [14] = test: Induction of ER stress in human HCT-116 cells at 0.3 to 1.2 uM incubated for 48 hrs by ER-Tracker Red dye based analysis; assay type: functional, cell-based; conditions: dose 0.3-1.2 µM
HCT-116 [15] = test: Induction of mitochondrial dysfunction in human HCT-116 cells at 0.3 to 1.2 uM incubated for 48 hrs by Mito-Tracker Green probe based analysis; assay type: functional, cell-based; conditions: dose 0.3-1.2 µM
HCT-116 [16] = test: Effect on SRSF7 expression in human HCT-116 cells upto 6 uM incubated for 30 mins followed by pronase addition measured after 30 mins by DARTS assay; assay type: functional, cell-based
[17] = biological target: Peptidyl-prolyl cis-trans isomerase A (Homo sapiens, UniProt P62937); test: Binding affinity to CM5 chip-immobilized PPIA (unknown origin) assessed as dissociation constant by SPR analysis
Chain of Peptidyl-prolyl cis-trans isomerase A (P62937 whole entry): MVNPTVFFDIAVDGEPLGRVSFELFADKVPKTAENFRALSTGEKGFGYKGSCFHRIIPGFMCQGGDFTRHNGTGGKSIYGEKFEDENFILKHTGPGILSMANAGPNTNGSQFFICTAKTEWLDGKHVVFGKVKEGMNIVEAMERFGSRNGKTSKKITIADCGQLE

HCT-116 [18] = test: Cytotoxicity against human HCT-116 cells harboring siNC assessed as inhibition of cell viability incubated for 48 hrs by CCK8 assay; assay type: functional, cell-based; conditions: HCT-116, 48 h
HCT-116 [19] = test: Cytotoxicity against human HCT-116 cells harboring siPPIA-3 assessed as inhibition of cell viability incubated for 48 hrs by CCK8 assay; assay type: functional, cell-based; conditions: HCT-116, 48 h
HCT-116 [20] = test: Inhibition of colony formation in human HCT-116 cells harboring siNC at 1.2 uM incubated for 48 hrs followed by fresh media replacement without compound on every 72 hrs for 14 days by crystal violet staining based analysis; assay type: functional, cell-based
HCT-116 [21] = test: Anti-migration activity in human HCT-116 cells harboring siNC at 1.2 uM incubated for 24 hrs by wound healing assay; assay type: functional, cell-based
HCT-116 [22] = test: Anti-proliferative activity against human HCT-116 cells harboring siPPIA-3 assessed as decrease in p-ERK1/2 level at 1.2 uM by Western blot analysis; assay type: functional, cell-based
HCT-116 [23] = test: Induction of apoptosis in human HCT-116 cells harboring siNC assessed as early apoptotic cells at 1.2 uM by Annexin V-FITC/PI staining based flow cytometry (reference value: 1.52 %); assay type: functional
HCT-116 [24] = test: Induction of apoptosis in human HCT-116 cells harboring siNC assessed as late apoptotic cells at 1.2 uM by Annexin V-FITC/PI staining based flow cytometry (reference value: 1.35 %); assay type: functional
HCT-116 [25] = test: Induction of apoptosis in human HCT-116 cells harboring siPPIA-3 assessed as viable cells at 1.2 uM by Annexin V-FITC/PI staining based flow cytometry (reference value: 87.9 %); assay type: functional; conditions: read-out: Activity
HCT-116 [26] = test: Induction of apoptosis in human HCT-116 cells harboring siPPIA-3 assessed as late apoptotic cells at 1.2 uM by Annexin V-FITC/PI staining based flow cytometry (reference value: 3.44 %); assay type: functional
[27] = Acute toxicity in BALB/c mouse assessed as death rate at 180 mg/kg, ip measured for 14 days; assay type: organism-based; conditions: both, in vivo, time 14 day, read-out: Activity
[28] = Acute toxicity in BALB/c mouse assessed as death rate at 250 mg/kg, ip measured for 14 days; assay type: organism-based; conditions: both, in vivo, time 14 day, read-out: Activity
[29] = Acute toxicity in BALB/c mouse assessed as death rate at 350 mg/kg, ip measured for 14 days; assay type: organism-based; conditions: both, in vivo, time 14 day, read-out: Activity
[30] = Acute toxicity in BALB/c mouse assessed as death rate at 500 mg/kg, ip measured for 14 days; assay type: organism-based; conditions: both, in vivo, time 14 day, read-out: Activity
[31] = Acute toxicity in BALB/c mouse assessed as death rate at 700 mg/kg, ip measured for 14 days; assay type: organism-based; conditions: both, in vivo, time 14 day, read-out: Activity
CT26 = test: Antitumor activity against mouse CT26 cells implanted in BALB/c mouse assessed as reduction in tumor volume administered intraperitoneally once daily for 14 days; assay type: functional; conditions: dose 15-45 mg/kg, route ip, time 14.0 day
[32] = Toxicity in BALB/c mouse implanted with mouse CT26 cells assessed as change in body weight at 15 to 45 mg/kg, ip qd treated for 14 days; assay type: organism-based; conditions: in vivo, 336 h, dose 15-45 mg/kg, time 14 day
[33] = Toxicity in BALB/c mouse implanted with mouse CT26 cells assessed as injury in heart at 15 to 45 mg/kg, ip qd treated for 14 days by H and E staining based analysis; assay type: organism-based; conditions: in vivo, 336 h, dose 15-45 mg/kg, time 14 day
[34] = Toxicity in BALB/c mouse implanted with mouse CT26 cells assessed as injury in spleen at 15 to 45 mg/kg, ip qd treated for 14 days by H and E staining based analysis; assay type: organism-based; conditions: in vivo, 336 h, dose 15-45 mg/kg, time 14 day

C=C(C(=O)OC)N1c2nc(Cl)nc(Cl)c2N2C(c3ccccc3F)OC(C(=O)OCC)(C(=O)OCC)C12 (racemic)
Activity (HCT-116 [1]): inactive | Activity (HCT-116 [2]): Dose-dependent-effect | IC50 (HCT-116 [3]): 510 nM | IC50 (MCF7): 1190 nM | IC50 (PANC-1): 3310 nM | Activity (HCT-116 [4]): Dose-dependent-effect | Activity (HCT-116 [5]): 69.07% | Activity (HCT-116 [6]): 28.16% | viability at 0.6 µM (HCT-116 [7]): 77.5% | Activity (HCT-116 [8]): 5.53% | viability at 1.2 µM (HCT-116 [9]): 68% | Activity (HCT-116 [10]): 2.4% | Activity (HCT-116 [11]): Dose-dependent-effect | Activity (HCT-116 [12]): Active | Activity (HCT-116 [13]): inactive | Activity (HCT-116 [14]): Active | Activity (HCT-116 [15]): Active | Activity (HCT-116 [16]): No effect | Kd [17]: 520 nM | IC50 (HCT-116 [18]): 470 nM | IC50 (HCT-116 [19]): 1940 nM | inhibition (HCT-116 [20]): Active | Activity (HCT-116 [21]): Active | Activity (HCT-116 [22]): inactive | Activity (HCT-116 [23]): 16.8% | Activity (HCT-116 [24]): 4.87% | viability at 1.2 µM (HCT-116 [25]): 87% | Activity (HCT-116 [26]): 3.25% | mortality at 336 h [27]: 0% | mortality at 336 h [28]: 10% | mortality at 336 h [29]: 20% | mortality at 336 h [30]: 60% | mortality at 336 h [31]: 100% | Activity (CT26): Dose-dependent-effect | Activity [32]: Non-toxic | Activity [33]: Non-toxic | Activity [34]: Non-toxic

From ChEMBL document CHEMBL6103618, “Discovery of Novel Oxazolo[4,3-f]purine Derivatives as Antitumor Agents through PPIA Interaction” (J Med Chem, 2025)
